pIC50: −log10 of the molar value.

What is called pIC50 is the IC50 on a negative log10 scale, so that one unit is a factor of ten. Low readings indicate a high IC50, high ones a low IC50.

The experiment addresses wt human LRRK2, catalytic site (Homo sapiens (Human), UniProt Q5S007). Put plainly: TR-FRET LanthaScreen Tb Kinase Activity Assay (LRRK2 kinase inhibition). Format: biochemical. The following applies: 2 nM wt human LRRK2, 400 nM fluorescein-ERM (LRRKtide) peptide, 38 μM ATP, 120 minutes at room temperature. As to the method: The compounds in Table 1 were tested for their inhibitory effect on LRRK2 kinase according to the following procedures.
The protocol for basic TR-FRET LanthaScreen Tb Kinase Activity Assay inhibitor studies were as follows. LanthaScreen Kinase Activity Assays (ThermoFisher/USA) to evaluate inhibitors were performed by addition of 100 nL of test compound in corresponding DMSO dilutions/5 μL of kinase/fluorescein-ERM(LRRKtide) peptide mixture, 5 μL of ATP into 384 well small volume plates. After incubation for 120 minutes at room temperature, the detection reagents containing Tb-anti-pLRRKtide antibody were added to monitor phosphrylation level of peptide. Then, after 60 min minutes incubation at room temperature plates were read in Envision. Data analysis of emission ratios was according to LanthaScreen Tb Kinase Activity Assay protocol.
Kinase and assay components were adjusted to final concentrations according to the kit protocol. For LRRK2: 2 nM wt human LRRK2, catalytic site, catalytic site (ThermoFisher/USA), 400 nM peptide, 38 μM ATP in 1× Kinase Buffer A.
Basic protocol for TR-FRET LanthaScreen Tb Kinase Activity Assay inhibitor studies involved two steps: • Enzymatic step: Addition of 100 nL of test compound in corresponding DMSO dilutions, 5 μL of kinase/substrate mixture, 5 μL of ATP into 384 well small volume plates. Incubation for 120 minutes at room temperature. • Detection step: Addition of 10 μL EDTA & antibody, read plate after 60 minutes. Data analysis of emission ratios according to KinEASE assay protocol.
Kinase and assay components were adjusted to final concentrations according to the kit protocol.
In the table below, activity is provided as follows: +++=IC50 less than 50 nM; ++=IC50 between 50 nM and 200 nM; +=IC50>=200 nM
(In general: In TR-FRET formats the signal depends on donor and acceptor labels being close together.)

wt human LRRK2, catalytic site, sequence (Q5S007 1879-2138): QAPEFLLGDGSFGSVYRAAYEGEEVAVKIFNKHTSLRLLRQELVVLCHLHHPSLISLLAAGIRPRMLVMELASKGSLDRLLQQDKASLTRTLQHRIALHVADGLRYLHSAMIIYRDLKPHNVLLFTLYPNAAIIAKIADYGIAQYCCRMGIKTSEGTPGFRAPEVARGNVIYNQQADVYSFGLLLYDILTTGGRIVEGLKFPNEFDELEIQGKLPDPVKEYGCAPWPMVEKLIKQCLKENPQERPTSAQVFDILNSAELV

`CNc1nc(Nc2c(F)ccc3c2cnn3C)ncc1C(F)(F)F` [Example 38, N2-(5-fluoro-1-methyl-1H-indazol-4-yl)-N4-methyl-5-(trifluoromethyl) pyrimidine-2,4-diamine]: the pIC50 is 6.70 to 7.30.

The compound `CNc1nc(Nc2c(C)ccc3nn(C)cc23)ncc1C(F)(F)F` [Example 39, N2-(2,5-dimethyl-2H-indazol-4-yl)-N4-methyl-5-(trifluoromethyl)pyrimidine-2,4-diamine] gave a negative-log IC50 (pIC50) of at most 6.70.

Turning to `CNc1nc(Nc2c(OC)ccc3nn(C)cc23)ncc1C(F)(F)F` [Example 40, N2-(5-methoxy-2-methyl-2H-indazol-4-yl)-N-methyl-5-(trifluoromethyl) pyrimidine-2,4-diamine], the pIC50 was at most 6.70.

For the compound `CNc1nc(Nc2c(F)ccc3nn(C)cc23)ncc1C(F)(F)F` [Example 41, N2-(5-fluoro-2-methyl-2H-indazol-4-yl)-N4-methyl-5-(trifluoromethyl) pyrimidine-2,4-diamine], the negative logarithm of the IC50 (pIC50) is at most 6.70.

On to `CNc1nc(Nc2cc(F)cc3c2cnn3C)ncc1C(F)(F)F` [Example 42, N2-(6-fluoro-1-methyl-1H-indazol-4-yl)-N4-methyl-5-(trifluoromethyl) pyrimidine-2,4-diamine], for which the negative logarithm of the IC50 (pIC50) is over 7.30.

`CNc1nc(Nc2cc(C(C)C)cc3c2cnn3C)ncc1C(F)(F)F` [Example 43, N2-(6-isopropyl-1-methyl-1H-indazol-4-yl)-N4-methyl-5-(trifluoromethyl) pyrimidine-2,4-diamine]: the negative-log IC50 (pIC50) is over 7.30.

Compound `CNc1nc(Nc2cc(C#N)cc3c2cnn3C)ncc1C(F)(F)F` [Example 44, 1-methyl-4-((4-(methylamino)-5-(trifluoromethyl)pyrimidin-2-yl)amino)-1H-indazole-6-carbonitrile] had a negative-log IC50 (pIC50) of over 7.30.

Compound `CNc1nc(Nc2cc(C)cc3c2cnn3C)ncc1C(F)(F)F` [Example 45, N2-(1,6-dimethyl-1H-indazol-4-yl)-N4-methyl-5-(trifluoromethyl)pyrimidine-2,4-diamine] showed a pIC50 of over 7.30.

As for `CNc1nc(Nc2cc(/C=C/C(=O)N3CCOCC3)cc3c2cnn3C)ncc1C(F)(F)F` [Example 46, (E)-3-(1-methyl-4-((4-(methylamino)-5-(trifluoromethyl)pyrimidin-2-yl)amino)-1H-indazol-6-yl)-1-morpholinoprop-2-en-1-one], the pIC50 is over 7.30.

In turn, `CNc1nc(Nc2ccc(OC)c3c2cnn3C)ncc1C(F)(F)F` [Example 47, N2-(7-methoxy-1-methyl-1H-indazol-4-yl)-N4-methyl-5-(trifluoromethyl) pyrimidine-2,4-diamine] showed a pIC50 of over 7.30.

Compound `CNc1nc(Nc2cccc3[nH]nc(C)c23)ncc1C(F)(F)F` [Example 48, N4-methyl-N2-(3-methyl-1H-indazol-4-yl)-5-(trifluoromethyl)pyrimidine-2,4-diamine] had a pIC50 of 6.70 to 7.30.

The compound `CNc1nc(Nc2cc(C#N)cc3[nH]ncc23)ncc1C(F)(F)F` [Example 49, 4-((4-(methylamino)-5-(trifluoromethyl)pyrimidin-2-yl)amino)-1H-indazole-6-carbonitrile] gave a pIC50 of over 7.30.

Turning to `CNc1nc(Nc2cc(CC#N)cc3[nH]ncc23)ncc1C(F)(F)F` [Example 50, 2-(4-((4-(methylamino)-5-(trifluoromethyl)pyrimidin-2-yl)amino)-1H-indazol-6-yl)acetonitrile], the negative-log IC50 (pIC50) was over 7.30.

The compound `CNc1nc(Nc2cc(CC#N)cc3c2cnn3C)ncc1C(F)(F)F` [Example 51, 2-(1-methyl-4-((4-(methylamino)-5-(trifluoromethyl)pyrimidin-2-yl)amino)-1H-indazol-6-yl)acetonitrile] showed a pIC50 of over 7.30.

With `CNc1nc(Nc2cc(/C=C/C(=O)N3CCOCC3)cc3[nH]ncc23)ncc1C(F)(F)F` [Example 52], the pIC50 was over 7.30.

With `CNc1nc(Nc2cc(CCC(=O)N3CCOCC3)cc3[nH]ncc23)ncc1C(F)(F)F` [Example 53, 3-(4-((4-(methylamino)-5-(trifluoromethyl)pyrimidin-2-yl)amino)-1H-indazol-6-yl)-1-morpholinopropan-1-one], the negative-log IC50 (pIC50) is 6.70 to 7.30.

In the case of `CNc1nc(Nc2cc(CCC(=O)N3CCOCC3)cc3c2cnn3C)ncc1C(F)(F)F` [Example 54, 3-(1-methyl-4-((4-(methylamino)-5-(trifluoromethyl)pyrimidin-2-yl)amino)-1H-indazol-6-yl)-1-morpholinopropan-1-one], the pIC50 is 6.70 to 7.30.

The compound `CNc1nc(Nc2ccc(CC#N)c3c2cnn3C)ncc1C(F)(F)F` [Example 55, 2-(1-methyl-4-((4-(methylamino)-5-(trifluoromethyl)pyrimidin-2-yl)amino)-1H-indazol-7-yl)acetonitrile] gave a negative logarithm of the IC50 (pIC50) of over 7.30.

For the compound `CNc1nc(Nc2ccc(/C=C/C(=O)N3CCOCC3)c3[nH]ncc23)ncc1C(F)(F)F` [Example 56, (E)-3-(4-((4-(methylamino)-5-(trifluoromethyl)pyrimidin-2-yl)amino)-1H-indazol-7-yl)-1-morpholinoprop-2-en-1-one], the pIC50 was over 7.30.

Compound `CNc1nc(Nc2ccc(CCC(=O)N3CCOCC3)c3[nH]ncc23)ncc1C(F)(F)F` [Example 57, 3-(4-((4-(methylamino)-5-(trifluoromethyl)pyrimidin-2-yl)amino)-1H-indazol-7-yl)-1-morpholinopropan-1-one] gave a negative-log IC50 (pIC50) of over 7.30.

Regarding `CNc1nc(Nc2ccc(CCC(=O)N3CCOCC3)c3c2cnn3C)ncc1C(F)(F)F` [Example 58, 3-(1-methyl-4-((4-(methylamino)-5-(trifluoromethyl)pyrimidin-2-yl)amino)-1H-indazol-7-yl)-1-morpholinopropan-1-one], the negative logarithm of the IC50 (pIC50) is over 7.30.

As to `CNc1nc(Nc2ccc(/C(C)=C/C(=O)N3CCOCC3)c3c2cnn3C)ncc1C(F)(F)F` [Example 59, (E)-3-(1-methyl-4-((4-(methylamino)-5-(trifluoromethyl)pyrimidin-2-yl)amino)-1H-indazol-7-yl)-1-morpholinobut-2-en-1-one], the pIC50 was over 7.30.

`CNc1nc(Nc2ccc(C(C)CC(=O)N3CCOCC3)c3c2cnn3C)ncc1C(F)(F)F` (stereo not shown) [Example 60, 3-(1-methyl-4-((4-(methylamino)-5-(trifluoromethyl)pyrimidin-2-yl)amino)-1H-indazol-7-yl)-1-morpholinobutan-1-one] had a negative-log IC50 (pIC50) of over 7.30.

`CNc1nc(Nc2cnn3ccccc23)ncc1C(F)(F)F` [Example 61, N4-methyl-N2-(pyrazolo[1,5-a]pyridin-3-yl)-5-(trifluoromethyl)pyrimidine-2,4-diamine] had a pIC50 of over 7.30.

In the case of `CNc1nc(Nc2c(C)nn3ccccc23)ncc1C(F)(F)F` [Example 62, N4-methyl-N2-(2-methylpyrazolo[1,5-a]pyridin-3-yl)-5-(trifluoromethyl) pyrimidine-2,4-diamine], the pIC50 is 6.70 to 7.30.

Turning to `CNc1nc(Nc2c(C)[nH]c3ccccc23)ncc1C(F)(F)F` [Example 63, N4-methyl-N2-(2-methyl-1H-indol-3-yl)-5-(trifluoromethyl)pyrimidine-2,4-diamine], the pIC50 is 6.70 to 7.30.

`CNc1nc(Nc2c(C)n(C)c3ccccc23)ncc1C(F)(F)F` [Example 64, N2-(1,2-dimethyl-1H-indol-3-yl)-N4-methyl-5-(trifluoromethyl)pyrimidine-2,4-diamine] showed a pIC50 of 6.70 to 7.30.

Take `CNc1nc(Nc2c(C)nn3c(C#N)cccc23)ncc1C(F)(F)F` [Example 65, 2-methyl-3-((4-(methylamino)-5-(trifluoromethyl)pyrimidin-2-yl)amino)pyrazolo[1,5-a]pyridine-7-carbonitrile]: the pIC50 was at most 6.70.

In turn, `CNc1nc(Nc2c(C)[nH]c3c(C#N)cccc23)ncc1C(F)(F)F` [Example 66, 2-methyl-3-((4-(methylamino)-5-(trifluoromethyl)pyrimidin-2-yl)amino)-1H-indole-7-carbonitrile] showed a pIC50 of 6.70 to 7.30.

`CNc1nc(Nc2nn(C)c3ccccc23)ncc1C(F)(F)F` [Example 67, N4-methyl-N2-(1-methyl-1H-indazol-3-yl)-5-(trifluoromethyl)pyrimidine-2,4-diamine] gave a pIC50 of at most 6.70.

In turn, `Cn1ncc2c(Nc3ncc(C(F)(F)F)c(NC4CC4)n3)cccc21` [Example 68, N4-cyclopropyl-N2-(1-methyl-1H-indazol-4-yl)-5-(trifluoromethyl)pyrimidine-2,4-diamine] had a pIC50 of over 7.30.

As to `CCNc1nc(Nc2cccc3c2cnn3C)ncc1C(F)(F)F` [Example 69, N4-ethyl-N2-(1-methyl-1H-indazol-4-yl)-5-(trifluoromethyl)pyrimidine-2,4-diamine], the negative logarithm of the IC50 (pIC50) was over 7.30.

Turning to `CCNc1nc(Nc2cccc3c2cnn3C)ncc1Cl` [Example 70, 5-chloro-N4-ethyl-N2-(1-methyl-1H-indazol-4-yl)pyrimidine-2,4-diamine], the negative-log IC50 (pIC50) was over 7.30.

The compound `Cn1ncc2c(Nc3ncc(Cl)c(NC4CC4)n3)cccc21` [Example 71, 5-chloro-N4-cyclopropyl-N2-(1-methyl-1H-indazol-4-yl)pyrimidine-2,4-diamine] had a pIC50 of over 7.30.
